Experimental data from PubChem BioAssay AID330 (DTP/NCI, 2004).
Several values for one entry are separate records, joined by “and”; a condition that tells them apart may be missing. Identical values can stand only once. Inconclusive results and toxic doses are left out. How the source made its calls: active means survival T/C of 150% or more; inactive means T/C below 125% in these data.

Test system: P388 leukemia ip, CD2F1 mice, survival T/C
Test: NCI In Vivo Anticancer Drug Screen. Data for tumor model P388 Leukemia (intraperitoneal) in CD2F1 (CDF1) mice
Details: endpoint: median survival time, higher = longer survival
Summary of the method: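 Mice carrying the transplanted tumor received test compound or vehicle. Survival was recorded in each group, and the value is the treated-group measurement divided by that of the vehicle-treated control group.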

[1] = dose: 50.0 mg/kg/injection, schedule: Q01DX005 (ip), vehicle: saline with Tween-80
[2] = dose: 100.0 mg/kg/injection, schedule: Q01DX005 (ip), vehicle: saline with Tween-80
[3] = dose: 200.0 mg/kg/injection, schedule: Q01DX005 (ip), vehicle: saline with Tween-80
[4] = dose: 50.0 mg/kg/injection, schedule: Q01DX005 (ip), vehicle: Klucel (hydroxypropylcellulose) (HPC)
[5] = dose: 100.0 mg/kg/injection, schedule: Q01DX005 (ip), vehicle: Klucel (hydroxypropylcellulose) (HPC)
[6] = dose: 200.0 mg/kg/injection, schedule: Q01DX005 (ip), vehicle: Klucel (hydroxypropylcellulose) (HPC)
[7] = dose: 60.0 mg/kg/injection, schedule: Q01DX005 (ip), vehicle: saline
[8] = dose: 120.0 mg/kg/injection, schedule: Q01DX005 (ip), vehicle: saline
[9] = dose: 240.0 mg/kg/injection, schedule: Q01DX005 (ip), vehicle: saline
[10] = dose: 60.0 mg/kg/injection, schedule: Q01DX005 (ip), vehicle: saline with Tween-80
[11] = dose: 120.0 mg/kg/injection, schedule: Q01DX005 (ip), vehicle: saline with Tween-80
[12] = dose: 240.0 mg/kg/injection, schedule: Q01DX005 (ip), vehicle: saline with Tween-80
[13] = dose: 25.0 mg/kg/injection, schedule: Q01DX005 (ip), vehicle: Klucel (hydroxypropylcellulose) (HPC)

Measured: T/C

CC1NC(=O)N(C(C)(C)C)C1=O (centres undefined)
inactive: [1] 111 % of control | dose: 50.0 mg/kg/injection, schedule: Q01DX005 (ip), vehicle: saline 101 % of control | [2] 111 % of control | dose: 100.0 mg/kg/injection, schedule: Q01DX005 (ip), vehicle: saline 100 % of control | [3] 120 % of control | dose: 200.0 mg/kg/injection, schedule: Q01DX005 (ip), vehicle: saline 102 % of control and 107 % of control

Nc1ccc(SSc2ccc(Nc3ccnc4cc(Cl)ccc34)cc2)cc1
inactive: [1] 92 % of control | [2] 93 % of control | [3] 91 % of control

O=c1oc2cc(O)ccc2c2oc3cc(O)ccc3c12
inactive: dose: 50.0 mg/kg/injection, schedule: Q04DX003 (ip), vehicle: saline with Tween-80 100 % of control | dose: 100.0 mg/kg/injection, schedule: Q04DX003 (ip), vehicle: saline with Tween-80 94 % of control | dose: 200.0 mg/kg/injection, schedule: Q04DX003 (ip), vehicle: saline with Tween-80 93 % of control | dose: 400.0 mg/kg/injection, schedule: Q04DX003 (ip), vehicle: saline with Tween-80 93 % of control

Cc1ncc([N+](=O)[O-])n1CCSC#N
inactive: dose: 6.25 mg/kg/injection, schedule: Q04DX003 (ip), vehicle: saline with Tween-80 105 % of control | dose: 12.5 mg/kg/injection, schedule: Q04DX003 (ip), vehicle: saline with Tween-80 96 % of control

Cc1cccc(N2C(=O)C=C(NCc3nc4ccccc4[nH]3)C2c2ccccc2)c1 (centres undefined)
inactive: [4] 104 % of control | [5] 100 % of control | [6] 100 % of control

CC(=O)Nc1ccc(C(=O)N2C(=N)C(C#N)=C(O)/C2=C\c2ccc(Cl)c(Cl)c2)cc1
inactive: [7] 100 % of control | [8] 100 % of control | [9] 103 % of control

CN(C)c1ccc2c(c1)C(=O)N(OS(=O)(=O)c1ccccc1)C2=O
inactive: [1] 100 % of control | [2] 103 % of control | [3] 96 % of control

Cc1c(Cl)cccc1N=Cc1ccc(C=Nc2cccc(Cl)c2C)cc1
inactive: dose: 50.0 mg/kg/injection, schedule: Q01DX009 (ip), vehicle: Klucel (hydroxypropylcellulose) (HPC) 94 % of control | dose: 100.0 mg/kg/injection, schedule: Q01DX009 (ip), vehicle: Klucel (hydroxypropylcellulose) (HPC) 92 % of control | dose: 200.0 mg/kg/injection, schedule: Q01DX009 (ip), vehicle: Klucel (hydroxypropylcellulose) (HPC) 91 % of control

O=[N+]([O-])c1ccc(/C=C/S(=O)(=O)/C=C\c2ccccc2)cc1
inactive: [1] 101 % of control | [2] 97 % of control | [3] 88 % of control

COc1ccc(NC(=O)Nc2ccc(C#N)cc2)cc1
inactive: [10] 101 % of control | [11] 93 % of control | [12] 93 % of control

Oc1ccc([C@H]2Oc3c(c(O)cc4c3C3c5c(O)cc(O)cc5OC(c5ccc(O)cc5)(O4)[C@H]3O)CC2O)cc1 (some centres undefined)
inactive: dose: 1.0 mg/kg/injection, schedule: Q01DX005 (ip), vehicle: Klucel (hydroxypropylcellulose) (HPC) 103 % of control | dose: 2.0 mg/kg/injection, schedule: Q01DX005 (ip), vehicle: Klucel (hydroxypropylcellulose) (HPC) 103 % of control | dose: 4.0 mg/kg/injection, schedule: Q01DX005 (ip), vehicle: Klucel (hydroxypropylcellulose) (HPC) 110 % of control | dose: 8.0 mg/kg/injection, schedule: Q01DX005 (ip), vehicle: Klucel (hydroxypropylcellulose) (HPC) 103 % of control

O=C1c2ccc3ccccc3c2CCC1C1([n+]2ccccc2)CCc2c(ccc3ccccc23)C1=O (centres undefined)
inactive: dose: 6.25 mg/kg/injection, schedule: Q01DX005 (ip), vehicle: Klucel (hydroxypropylcellulose) (HPC) 99 % of control and 109 % of control | dose: 12.5 mg/kg/injection, schedule: Q01DX005 (ip), vehicle: Klucel (hydroxypropylcellulose) (HPC) 100 % of control and 103 % of control and 98 % of control | [13] 99 % of control and 100 % of control and 112 % of control

O=C1c2cccc(O)c2C(=O)c2c1cc(CO)c(-c1c(CO)cc3c(c1O)C(=O)c1c(O)cccc1C3=O)c2O
inactive: dose: 3.75 mg/kg/injection, schedule: Q01DX005 (ip), vehicle: Klucel (hydroxypropylcellulose) (HPC) 98 % of control | dose: 7.5 mg/kg/injection, schedule: Q01DX005 (ip), vehicle: Klucel (hydroxypropylcellulose) (HPC) 100 % of control | dose: 15.0 mg/kg/injection, schedule: Q01DX005 (ip), vehicle: Klucel (hydroxypropylcellulose) (HPC) 99 % of control

O=c1[nH]nc(SCc2ccc(Cl)cc2)c(=O)[nH]1
inactive: [13] 92 % of control | [4] 91 % of control | [5] 90 % of control | [6] 87 % of control

c1ccc2c3cc(cc2c1)OCCOCCOCCOc1ccc2ccccc2c1-c1c(ccc2ccccc12)OCCOCCOc1ccc2ccccc2c1-3
inactive: dose: 100.0 mg/kg/injection, schedule: Q01DX001 (ip), vehicle: saline with Tween-80 97 % of control | dose: 200.0 mg/kg/injection, schedule: Q01DX001 (ip), vehicle: saline with Tween-80 94 % of control

CCOP(=S)(N/N=C/c1cccnc1)OCC
inactive: dose: 100.0 mg/kg/injection, schedule: Q01DX001 (ip), vehicle: Klucel (hydroxypropylcellulose) (HPC) 101 % of control | dose: 200.0 mg/kg/injection, schedule: Q01DX001 (ip), vehicle: Klucel (hydroxypropylcellulose) (HPC) 101 % of control | dose: 400.0 mg/kg/injection, schedule: Q01DX001 (ip), vehicle: Klucel (hydroxypropylcellulose) (HPC) 108 % of control

COCc1cn[nH]n1
inactive: [7] 100 % of control | [8] 99 % of control | [9] 104 % of control

CCC(C)/[N+]([O-])=N\O (centres undefined)
inactive: dose: 3.0 mg/kg/injection, schedule: Q01DX005 (ip), vehicle: Klucel (hydroxypropylcellulose) (HPC) 98 % of control | dose: 6.0 mg/kg/injection, schedule: Q01DX005 (ip), vehicle: Klucel (hydroxypropylcellulose) (HPC) 91 % of control | dose: 12.0 mg/kg/injection, schedule: Q01DX005 (ip), vehicle: Klucel (hydroxypropylcellulose) (HPC) 100 % of control | dose: 24.0 mg/kg/injection, schedule: Q01DX005 (ip), vehicle: Klucel (hydroxypropylcellulose) (HPC) 97 % of control

O=c1[nH]c(=O)n(C2CCCS2)cc1F (centres undefined)
inactive: dose: 37.5 mg/kg/injection, schedule: Q01DX009 (ip), vehicle: suspension in saline 100 % of control | dose: 75.0 mg/kg/injection, schedule: Q01DX009 (ip), vehicle: suspension in saline 100 % of control | dose: 150.0 mg/kg/injection, schedule: Q01DX009 (ip), vehicle: suspension in saline 97 % of control

COc1nc(N(C)C)c2cnn(C3CCCCO3)c2n1 (centres undefined)
inactive: dose: 12.5 mg/kg/injection, schedule: Q04DX002 (ip), vehicle: saline with Tween-80 102 % of control | dose: 25.0 mg/kg/injection, schedule: Q04DX002 (ip), vehicle: saline with Tween-80 97 % of control

Cc1ccc2occ3c(=O)n(C)nc-3c2c1
inactive: [10] 95 % of control | [11] 91 % of control | [12] 94 % of control

Nc1cccnc1S(=O)(=O)O
inactive: dose: 50.0 mg/kg/injection, schedule: Q01DX009 (ip), vehicle: saline 94 % of control | dose: 100.0 mg/kg/injection, schedule: Q01DX009 (ip), vehicle: saline 98 % of control | dose: 200.0 mg/kg/injection, schedule: Q01DX009 (ip), vehicle: saline 98 % of control

CS(=O)(=O)CC(=O)c1ccccc1
inactive: dose: 25.0 mg/kg/injection, schedule: Q01DX009 (ip), vehicle: saline with Tween-80 101 % of control and 106 % of control | dose: 50.0 mg/kg/injection, schedule: Q01DX009 (ip), vehicle: saline with Tween-80 97 % of control | dose: 100.0 mg/kg/injection, schedule: Q01DX009 (ip), vehicle: saline with Tween-80 111 % of control and 106 % of control | dose: 200.0 mg/kg/injection, schedule: Q01DX009 (ip), vehicle: saline with Tween-80 103 % of control and 111 % of control
